Patent US20240226072A1 (Stichting Het Nederlands Kanker Instituut, priority 2022, published 2024)
Like-named read-outs stand apart in the source and are kept apart here.

Test: Plasma pharmacokinetics and tissue distribution 2 h after oral cabazitaxel 10 mg/kg with vehicle or 25 mg/kg ritonavir in wild-type, Oatp1a/1b−/−, Oatp1a/1b/2b1−/−, OATP1B1- and OATP1B3-transgenic mice
Assay type: in vivo
Conditions: for CLiver / Cbrain / Pbrain, brain accumulation per h / SIC (% of dose), small intestinal content / Kp at 2 h: 2 h; for enhancement of AUC0-2h by ritonavir: ritonavir 25 mg/kg compared to respective vehicle group; for AUC(0-t) / Kp at 2 h / Cmax / Tmax: male, FVB, mouse; for AUC(0-t) / Cmax / Tmax: plasma; for AUC(0-t): read-out: AUC0-2 h
Experimental: All animals were fasted 2 to 3 hours prior to the start of the experiment to minimize variation in absorption after oral administration. […] Subsequently, cardiac puncture was performed with a heparinized needle and syringe collecting a final blood sample. […] All samples were stored at −30° C. until analysis.
Differences were considered statistically significant when P<0.05. All data are presented as geometric mean±SD.

[1] = OATP1B1-transgenic mice, ritonavir 25 mg/kg oral, cabazitaxel 10 mg/kg oral
[2] = OATP1B1-transgenic mice, vehicle, cabazitaxel 10 mg/kg oral
[3] = OATP1B3-transgenic mice, ritonavir 25 mg/kg oral, cabazitaxel 10 mg/kg oral
[4] = OATP1B3-transgenic mice, vehicle, cabazitaxel 10 mg/kg oral
[5] = Oatp1a/1b/2b1−/− mice, ritonavir 25 mg/kg oral, cabazitaxel 10 mg/kg oral
[6] = Oatp1a/1b/2b1−/− mice, vehicle, cabazitaxel 10 mg/kg oral
[7] = Oatp1a/1b−/− mice, ritonavir 25 mg/kg oral, cabazitaxel 10 mg/kg oral
[8] = Oatp1a/1b−/− mice, vehicle, cabazitaxel 10 mg/kg oral
[9] = po, 10 mg/kg, OATP1B1-transgenic mice, ritonavir 25 mg/kg oral, cabazitaxel 10 mg/kg oral
[10] = po, 10 mg/kg, OATP1B1-transgenic mice, vehicle pretreatment, oral 10 mg/kg cabazitaxel
[11] = po, 10 mg/kg, OATP1B1-transgenic mice, vehicle, cabazitaxel 10 mg/kg oral

CO[C@H]1C(=O)[C@]2(C)[C@@H](OC)C[C@H]3OC[C@@]3(OC(C)=O)[C@H]2[C@H](OC(=O)c2ccccc2)[C@]2(O)C[C@H](OC(=O)[C@H](O)[C@@H](NC(=O)OC(C)(C)C)c3ccccc3)C(C)=C1C2(C)C [cabazitaxel]
CLiver [1]: 22966 pmol/g
Cbrain [1]: 275 pmol/g
Pbrain, brain accumulation per h [1]: 0.031 h⁻¹
SIC (% of dose), small intestinal content [1]: 1.93 % of dose
CLiver [2]: 3150 pmol/g
Cbrain [2]: 59.0 pmol/g
Pbrain, brain accumulation per h [2]: 0.014 h⁻¹
SIC (% of dose), small intestinal content [2]: 1.43 % of dose
CLiver [3]: 21217 pmol/g
Cbrain [3]: 245 pmol/g
Pbrain, brain accumulation per h [3]: 0.032 h⁻¹
SIC (% of dose), small intestinal content [3]: 1.06 % of dose
CLiver [4]: 2777 pmol/g
Cbrain [4]: 55.8 pmol/g
Pbrain, brain accumulation per h [4]: 0.014 h⁻¹
SIC (% of dose), small intestinal content [4]: 1.00 % of dose
enhancement of AUC0-2h by ritonavir (Oatp1a/1b/2b1−/− mice): 2.4 fold
CLiver [5]: 21464 pmol/g
Cbrain [5]: 262 pmol/g
Pbrain, brain accumulation per h [5]: 0.029 h⁻¹
SIC (% of dose), small intestinal content [5]: 1.67 % of dose
CLiver [6]: 2979 pmol/g
Cbrain [6]: 49.4 pmol/g
Pbrain, brain accumulation per h [6]: 0.013 h⁻¹
SIC (% of dose), small intestinal content [6]: 2.22 % of dose
enhancement of AUC0-2h by ritonavir (Oatp1a/1b−/− mice): 3.0 fold
CLiver [7]: 20747 pmol/g
Cbrain [7]: 323 pmol/g
Pbrain, brain accumulation per h [7]: 0.035 h⁻¹
SIC (% of dose), small intestinal content [7]: 0.91 % of dose
CLiver [8]: 2758 pmol/g
Cbrain [8]: 45.2 pmol/g
Pbrain, brain accumulation per h [8]: 0.014 h⁻¹
SIC (% of dose), small intestinal content [8]: 0.32 % of dose
AUC(0-t) (OATP1B1-transgenic (Oatp1a/1b−/− background), po, 10 mg/kg, OATP1B1-transgenic mice, ritonavir 25 mg/kg oral, cabazitaxel 10 mg/kg oral): 7.91 µM·h
AUC(0-t) (OATP1B1-transgenic (Oatp1a/1b−/− background), po, 10 mg/kg, OATP1B1-transgenic mice, vehicle, cabazitaxel 10 mg/kg oral): 3.7 µM·h
AUC(0-t) (OATP1B3-transgenic (Oatp1a/1b−/− background), po, 10 mg/kg, OATP1B3-transgenic mice, ritonavir 25 mg/kg oral, cabazitaxel 10 mg/kg oral): 6.57 µM·h
AUC(0-t) (OATP1B3-transgenic (Oatp1a/1b−/− background), po, 10 mg/kg, OATP1B3-transgenic mice, vehicle, cabazitaxel 10 mg/kg oral): 3.51 µM·h
AUC(0-t) (Oatp1a/1b/2b1−/−, po, 10 mg/kg, Oatp1a/1b/2b1−/− mice, ritonavir 25 mg/kg oral, cabazitaxel 10 mg/kg oral): 6.8 µM·h
AUC(0-t) (Oatp1a/1b/2b1−/−, po, 10 mg/kg, Oatp1a/1b/2b1−/− mice, vehicle, cabazitaxel 10 mg/kg oral): 2.88 µM·h
AUC(0-t) (Oatp1a/1b−/−, po, 10 mg/kg, Oatp1a/1b−/− mice, ritonavir 25 mg/kg oral, cabazitaxel 10 mg/kg oral): 7.89 µM·h
AUC(0-t) (Oatp1a/1b−/−, po, 10 mg/kg, Oatp1a/1b−/− mice, vehicle, cabazitaxel 10 mg/kg oral): 2.62 µM·h
Kp at 2 h (brain/plasma, po, 10 mg/kg, OATP1B1-transgenic mice, vehicle, cabazitaxel 10 mg/kg oral, read-out: Brain-to-plasma ratio): 0.054
Kp at 2 h (brain/plasma, po, 10 mg/kg, OATP1B3-transgenic mice, vehicle, cabazitaxel 10 mg/kg oral, read-out: Brain-to-plasma ratio): 0.067
Kp at 2 h (brain/plasma, po, 10 mg/kg, Oatp1a/1b/2b1−/− mice, vehicle, cabazitaxel 10 mg/kg oral, read-out: Brain-to-plasma ratio): 0.064
Kp at 2 h (brain/plasma, po, 10 mg/kg, Oatp1a/1b−/− mice, vehicle, cabazitaxel 10 mg/kg oral, read-out: Brain-to-plasma ratio): 0.064
Kp at 2 h (brain/plasma, po, 10 mg/kg, wild-type mice, vehicle, cabazitaxel 10 mg/kg oral, read-out: Brain-to-plasma ratio): 0.069
Kp at 2 h (brain/plasma, po, OATP1B1-transgenic mice, ritonavir 25 mg/kg oral, cabazitaxel 10 mg/kg oral, read-out: Brain-to-plasma ratio): 0.045
Kp at 2 h (brain/plasma, po, OATP1B3-transgenic mice, ritonavir 25 mg/kg oral, cabazitaxel 10 mg/kg oral, read-out: Brain-to-plasma ratio): 0.046
Kp at 2 h (brain/plasma, po, Oatp1a/1b/2b1−/− mice, ritonavir 25 mg/kg oral, cabazitaxel 10 mg/kg oral, read-out: Brain-to-plasma ratio): 0.047
Kp at 2 h (brain/plasma, po, Oatp1a/1b−/− mice, ritonavir 25 mg/kg oral, cabazitaxel 10 mg/kg oral, read-out: Brain-to-plasma ratio): 0.055
Kp at 2 h (brain/plasma, po, wild-type mice, ritonavir 25 mg/kg oral, cabazitaxel 10 mg/kg oral, read-out: Brain-to-plasma ratio): 0.036
Kp at 2 h (liver, oral, 10 mg/kg, OATP1B1-transgenic mice, vehicle, cabazitaxel 10 mg/kg oral, read-out: Liver-to-plasma ratio): 3.1
Kp at 2 h (liver, oral, 10 mg/kg, OATP1B3-transgenic mice, vehicle, cabazitaxel 10 mg/kg oral, read-out: Liver-to-plasma ratio): 3.61
Kp at 2 h (liver, oral, 10 mg/kg, Oatp1a/1b/2b1−/− mice, vehicle, cabazitaxel 10 mg/kg oral, read-out: Liver-to-plasma ratio): 3.84
Kp at 2 h (liver, oral, 10 mg/kg, Oatp1a/1b−/− mice, vehicle, cabazitaxel 10 mg/kg oral, read-out: Liver-to-plasma ratio): 3.95
Kp at 2 h (liver, oral, 10 mg/kg, wild-type mice, vehicle, cabazitaxel 10 mg/kg oral, read-out: Liver-to-plasma ratio): 3.93
Kp at 2 h (liver, oral, OATP1B1-transgenic mice, ritonavir 25 mg/kg oral, cabazitaxel 10 mg/kg oral, read-out: Liver-to-plasma ratio): 3.84
Kp at 2 h (liver, oral, OATP1B3-transgenic mice, ritonavir 25 mg/kg oral, cabazitaxel 10 mg/kg oral, read-out: Liver-to-plasma ratio): 4.15
Kp at 2 h (liver, oral, Oatp1a/1b/2b1−/− mice, ritonavir 25 mg/kg oral, cabazitaxel 10 mg/kg oral, read-out: Liver-to-plasma ratio): 3.95
Kp at 2 h (liver, oral, Oatp1a/1b−/− mice, ritonavir 25 mg/kg oral, cabazitaxel 10 mg/kg oral, read-out: Liver-to-plasma ratio): 3.62
Kp at 2 h (liver, oral, wild-type mice, ritonavir 25 mg/kg oral, cabazitaxel 10 mg/kg oral, read-out: Liver-to-plasma ratio): 3.32
Cmax [9]: 4.67 µM
Tmax [9]: 65 min
Cmax [10]: 2.73 ± 0.855 µM
Tmax [10]: 27.5 min
AUC(0-t) (po, 10 mg/kg, OATP1B1-transgenic mice, vehicle pretreatment, oral 10 mg/kg cabazitaxel, 0-2 h): 3.7 ± 1.23 µM·h
Cmax [11]: 2.73 µM
Tmax [11]: 27.5 min
